For eight compounds, Activity results are on record in ChEMBL document CHEMBL5137095, “N-Benzyl Benzamide Derivatives as Selective Sub-Nanomolar Butyrylcholinesterase Inhibitors for Possible Treatment in Advanced Alzheimer's Disease” (J Med Chem, 2022).

Test [1] concerns PC-12. The test is described as follows: Neuroprotective activity against H2O2-induced cell damage in rat PC-12 cells at 5 uM pretreated for 2 hrs followed by H2O2 addition and measured after 24 hrs by MTT assay. The test is classed as functional, cell-based. In general terms: Formazan colour is commonly taken as a measure of viable cells.
Test [2] relates to Mus musculus. The test can be described thus: Cognitive enhancing effect in amyloid beta (1 to 42)-induced ICR mouse model assessed as reduction in amyloid beta (1 to 42) peptide level in brain administered via icv measured on day 14 by ELISA. The test is classed as functional, organism-based. The settings on record: dose 0.5-10 mg/kg, time 14.0 day, DDE = dose-dependent effect. In general terms: An ELISA detects its analyte on a solid surface through an enzyme-linked reagent.

Test [3] has as its system Mus musculus. The test is described as follows: Cognitive enhancing effect in amyloid beta (1 to 42)-induced ICR mouse model assessed as reduction in escape latency at 0.5 mg/kg, icv measured on day 14 by Morris Water maze method. The test is classed as functional, organism-based. The conditions noted are these: time 14.0 day.
Test [4] deals with Mus musculus. The test is described as follows: Cognitive enhancing effect in amyloid beta (1 to 42)-induced ICR mouse model assessed as decrease in IFN-gamma level in brain at 0.5 to 10, icv measured on day 14 by ELISA. The test is classed as functional, organism-based. The conditions noted are these: dose 0.5-10 mg/kg, time 14.0 day.
Test [5] concerns SH-SY5Y. The test can be described thus: Neuroprotective activity against amyloid beta (1 to 42)-induced cell damage in human SH-SY5Y cells assessed as inhibition of ROS level pretreated for 2 hrs followed by amyloid beta (1 to 42) addition and measured after 24 hrs by DCFH-DA staining based fluorescence microscopy analysis. The test is classed as functional. The conditions noted are these: time 26.0 hrs.

Test [6] deals with Mus musculus. The test is described as follows: Cognitive enhancing effect in amyloid beta (1 to 42)-induced ICR mouse model assessed as decrease in TNF-alpha level in brain at 0.5 to 10, icv measured on day 14 by ELISA. The test is classed as functional, organism-based. The settings on record: dose 0.5-10 mg/kg, time 14.0 day.
Test [7] has as its system Mus musculus. The test is described as follows: Cognitive enhancing effect in amyloid beta (1 to 42)-induced ICR mouse model assessed as increase in ACh level in brain at 0.5 to 10, icv measured on day 14 by ELISA. The test is classed as functional, organism-based. The settings on record: dose 0.5-10 mg/kg, time 14.0 day.
For test [8], the system named is PC-12. The test is described as follows: Neuroprotective activity against H2O2-induced cell damage in rat PC-12 cells pretreated for 2 hrs followed by H2O2 addition and measured after 24 hrs by MTT assay. The test is classed as functional, cell-based. The conditions noted are these: dose 2.5-10 µM, time 26.0 hrs, DDE = dose-dependent effect.
Test [9] deals with Mus musculus. The test is described as follows: Cognitive enhancing effect in amyloid beta (1 to 42)-induced ICR mouse model assessed as reduction in amyloid beta (1 to 42) peptide level in brain at 0.5 to 10 mg/kg, icv measured on day 14 by ELISA. The conditions noted are these: dose 0.5-10 mg/kg. The test is classed as functional, organism-based.
The test system of test [10] is SH-SY5Y. The test can be described thus: Neuroprotective activity against amyloid beta (1 to 42)-induced cell damage in human SH-SY5Y cells pretreated for 2 hrs followed by amyloid beta (1 to 42) addition and measured after 24 hrs by MTT assay. The test is classed as functional, cell-based. The conditions noted are these: dose 0.5-2 µM, time 26.0 hrs, DDE = dose-dependent effect.

For test [11], the system named is Mus musculus. The test can be described thus: Cognitive enhancing effect in amyloid beta (1 to 42)-induced ICR mouse model assessed as reduction in latency at 2.5 mg/kg, icv measured on day 14 by Morris Water maze method. The test is classed as functional, organism-based.
The test system of test [12] is Mus musculus. The test can be described thus: Cognitive enhancing effect in amyloid beta (1 to 42)-induced ICR mouse model assessed as reduction in latency at 1 mg/kg, icv measured on day 14 by Morris Water maze method. The test is classed as functional, organism-based.
Test [13] concerns SH-SY5Y. The test can be described thus: Neuroprotective activity against GA-induced cell damage in human SH-SY5Y cells pretreated for 2 hrs followed by GA addition and measured after 24 hrs by MTT assay. The conditions noted are these: dose 0.1-5 µM, time 26.0 hrs, DDE = dose-dependent effect. The test is classed as functional, cell-based.

Active and inactive are the calls of the source. The calls are words filed in the database; no cut-off is given here.

On to `CCCN(CCC)Cc1ccccc1CNC(=O)c1cccc(NC(=O)c2cccs2)c1`, for which the result in the test on PC-12 [1] was Active.

Consider `CN(C)Cc1ccccc1CNC(=O)c1cccc(NC(=O)c2cccs2)c1`, for which the result with PC-12 [1] was Active.

Consider `CCN(CC)Cc1ccccc1CNC(=O)c1cc(C)cc(NC(=O)c2ccc(F)cc2)c1`, for which, in the test with Mus musculus [2], the Activity entry was “Dde”. Further, the outcome in the test on Mus musculus [3], in the test on Mus musculus [4], with SH-SY5Y [5], in the test on Mus musculus [6] and in the test with Mus musculus [7] was Active.

As for `CCN(CC)Cc1ccccc1CNC(=O)c1cccc(NC(=O)c2ccc(F)cc2)c1`, the outcome in the test with Mus musculus [3], in the test with PC-12 [1], with Mus musculus [4], with Mus musculus [9], in the test on SH-SY5Y [5] and in the test on Mus musculus [6] was Active. The result in the test with Mus musculus [7] was Active. Further, the Activity result in the test on PC-12 [8] and in the test with SH-SY5Y [10] was “Dde” throughout.

As for `CCN(C)C(=O)Oc1cccc([C@H](C)N(C)C)c1`, the outcome in the test with Mus musculus [11] and with Mus musculus [12] was Active.

Regarding `CCN(CC)Cc1ccccc1CNC(=O)c1cccc(NC(=O)c2ccc(F)cc2)c1C`, the outcome in the test on SH-SY5Y [5] was Active.

With `CCN(CC)Cc1ccccc1CNC(=O)c1cc(Br)cc(NC(=O)c2ccc(F)cc2)c1`, the Activity result with SH-SY5Y [13] was “Dde”.

`COc1ccc2c3c1O[C@H]1C[C@@H](O)C=C[C@@]31CCN(C)C2`: the result in the test on Mus musculus [11] and in the test on Mus musculus [12] was Active.
